# Reference: patent US20250241978A1, “PEPTIDE FOR PREVENTION OR TREATMENT OF COVID-19” (priority 2020, published 2025)
# System: severe COVID-19 patients
# Experiment: Observation of seriously ill COVID-19 ICU patients treated with orally inhaled solnatide (Example 2)
# Experimental: Community patients with serious health conditions were admitted to a local hospital for examination. In some of these patients, COVID-19 was confirmed by positive testing for SARS-CoV-2 by nasopharyngeal swab and real-time RT-PCR.
# Following worsening of conditions, seriously ill COVID-19 patients were admitted to the ICU of the hospital.
# These patients were treated with placebo only in addition to standard critical care treatment and life support.
# During an observation period of 7 days, patient-centred clinical parameters which reflect the severity of COVID-19 were recorded.
# The SOFA score was used to track a patient's status during the stay in an intensive care unit (ICU) to determine the extent of the patient's organ function or rate of failure.
substance,measurement,setting,value
cyclo-CGQRETPEGAEAKPWYC [solnatide],mean SOFA score at end of treatment period,"COVID-19 ICU patients, orally inhaled solnatide twice daily plus standard critical care, after 7-day treatment period, FIG. 1",8
same,mean SOFA score at start of treatment period,"COVID-19 ICU patients, orally inhaled solnatide twice daily plus standard critical care, start of 7-day treatment, FIG. 1",12
same,"mean body temperature, change during treatment","COVID-19 ICU patients, orally inhaled solnatide twice daily, 7-day treatment period, elevated at initiation, FIG. 3",decreased
same,mean dynamic lung compliance at end of treatment period,"COVID-19 ICU patients, orally inhaled solnatide twice daily, after 7-day treatment period, FIG. 2",50 mL/cm H2O
same,mean dynamic lung compliance at start of treatment period,"COVID-19 ICU patients, orally inhaled solnatide twice daily, start of 7-day treatment, FIG. 2",approx. 35 mL/cm H2O
same,patients who died within 28 days after onset of COVID-19 symptoms,"severe COVID-19 patients treated with solnatide, comparator cohort: 3 patients died",none
